The text below walks through data of ChEMBL document CHEMBL4813963, “Discovery of pyrazolo-thieno[3,2-d]pyrimidinylamino-phenyl acetamides as type-II pan-tropomyosin receptor kinase (TRK) inhibitors: Design, synthesis, and biological evaluation” (Eur J Med Chem, 2021).

Each structure is given as a SMILES string.

For orientation: IC50 means the point on the concentration scale where inhibition reaches its midpoint. What is called inhibition is the drop in the measured response relative to a control, in per cent.

Data set [1] has as its target T1, High affinity nerve growth factor receptor (Homo sapiens, UniProt P04629). The data set is described as follows: Inhibition of recombinant His-tagged human TRKA (441 to 796 residues) expressed in baculovirus expression system using 5-FAM-EEPLYWSFPAKKK-CONH2 as substrate preincubated for 1 hr followed by substrate addition in presence of ATP by mobility shift assay.
Target sequence in this assay (P04629 whole entry, the tested form may be a part): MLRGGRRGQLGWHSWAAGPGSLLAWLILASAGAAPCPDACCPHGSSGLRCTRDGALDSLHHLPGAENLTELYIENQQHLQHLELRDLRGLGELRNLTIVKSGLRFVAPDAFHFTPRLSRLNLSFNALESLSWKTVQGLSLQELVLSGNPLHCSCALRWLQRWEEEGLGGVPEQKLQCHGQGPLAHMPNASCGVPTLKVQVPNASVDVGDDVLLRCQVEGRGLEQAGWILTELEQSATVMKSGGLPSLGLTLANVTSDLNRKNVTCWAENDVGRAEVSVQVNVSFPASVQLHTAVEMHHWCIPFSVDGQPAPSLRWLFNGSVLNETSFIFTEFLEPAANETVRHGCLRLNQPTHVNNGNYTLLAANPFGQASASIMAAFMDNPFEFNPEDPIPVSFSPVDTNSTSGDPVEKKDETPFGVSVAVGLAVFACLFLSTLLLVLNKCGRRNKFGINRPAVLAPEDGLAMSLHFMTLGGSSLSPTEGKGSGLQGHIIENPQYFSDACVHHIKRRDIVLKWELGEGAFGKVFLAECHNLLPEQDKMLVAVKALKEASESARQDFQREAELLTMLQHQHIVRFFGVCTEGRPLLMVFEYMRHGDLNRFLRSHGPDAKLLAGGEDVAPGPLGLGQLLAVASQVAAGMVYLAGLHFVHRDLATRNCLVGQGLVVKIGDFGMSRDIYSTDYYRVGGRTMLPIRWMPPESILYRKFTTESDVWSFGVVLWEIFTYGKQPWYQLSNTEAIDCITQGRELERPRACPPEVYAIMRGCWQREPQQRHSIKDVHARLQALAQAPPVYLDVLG

Data set [2] concerns the target Epidermal growth factor receptor (Homo sapiens, UniProt P00533). The data set can be described thus: Inhibition of EGFR (unknown origin).
A further data set has as its target Aurora kinase B (Homo sapiens, UniProt Q96GD4). The data set can be described thus: Inhibition of Aurora B (unknown origin).
Data set [3] in a line: Permeability of compound in human brain like endothelial cells BBB model at 10 uM after 120 mins by LC-MS analysis. Particulars: read-out: permeability (converted). Format: ADME, cell-based.
Data set [4] concerns the target Serine/threonine-protein kinase Nek2 (Homo sapiens, UniProt P51955). The data set is described as follows: Inhibition of NEK2 (unknown origin).
The target of data set [5] is Mitogen-activated protein kinase kinase kinase kinase 4 (Homo sapiens, UniProt O95819). The data set can be described thus: Inhibition of MAP4K4 (unknown origin).
For data set [6], the target named is Macrophage colony-stimulating factor 1 receptor (Homo sapiens, UniProt P07333). The data set can be described thus: Inhibition of CSF1R (unknown origin).
For a further data set, the target named is Aurora kinase A (Homo sapiens, UniProt O14965). The data set can be described thus: Inhibition of Aurora A (unknown origin).
The test system of a further data set is KM12. The data set is described as follows: Cytotoxicity against human KM12 cells assessed as reduction in cell viability incubated for 72 hrs by resazurin based assay. The data set is classed as functional. Particulars: KM12, 72 h. In general terms: Resazurin is reduced to fluorescent resorufin, in cell work by metabolically active cells.
The target in data set [7] is T1, High affinity nerve growth factor receptor. The data set can be described thus: Inhibition of recombinant His-tagged human TRKA (441 to 796 residues) expressed in baculovirus expression system at 20 uM using 5-FAM-EEPLYWSFPAKKK-CONH2 as substrate preincubated for 1 hr followed by substrate addition in presence of ATP by mobility shift assay relative to control.
Target sequence in this assay (P04629 33-796 limits assumed): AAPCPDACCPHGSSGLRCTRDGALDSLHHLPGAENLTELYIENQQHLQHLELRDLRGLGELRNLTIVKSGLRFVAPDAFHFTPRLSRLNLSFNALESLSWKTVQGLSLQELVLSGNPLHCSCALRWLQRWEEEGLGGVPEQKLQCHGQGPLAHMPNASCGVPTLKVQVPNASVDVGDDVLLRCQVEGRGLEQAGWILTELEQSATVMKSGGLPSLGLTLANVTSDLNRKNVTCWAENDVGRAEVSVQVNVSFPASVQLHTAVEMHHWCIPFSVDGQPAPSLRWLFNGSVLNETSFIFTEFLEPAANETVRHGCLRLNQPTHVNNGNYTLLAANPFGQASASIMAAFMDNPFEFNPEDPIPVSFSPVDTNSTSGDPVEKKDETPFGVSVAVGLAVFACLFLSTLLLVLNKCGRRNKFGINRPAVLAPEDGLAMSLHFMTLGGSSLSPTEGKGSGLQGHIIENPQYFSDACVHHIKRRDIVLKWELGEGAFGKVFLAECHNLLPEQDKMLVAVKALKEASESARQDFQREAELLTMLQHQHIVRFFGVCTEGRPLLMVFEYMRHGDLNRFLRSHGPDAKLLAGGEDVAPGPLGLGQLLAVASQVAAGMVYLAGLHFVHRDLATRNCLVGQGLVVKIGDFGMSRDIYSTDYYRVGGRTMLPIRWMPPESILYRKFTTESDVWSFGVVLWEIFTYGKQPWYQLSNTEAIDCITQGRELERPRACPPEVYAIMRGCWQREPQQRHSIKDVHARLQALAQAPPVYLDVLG

Sequence of Aurora kinase B (Q96GD4 whole entry): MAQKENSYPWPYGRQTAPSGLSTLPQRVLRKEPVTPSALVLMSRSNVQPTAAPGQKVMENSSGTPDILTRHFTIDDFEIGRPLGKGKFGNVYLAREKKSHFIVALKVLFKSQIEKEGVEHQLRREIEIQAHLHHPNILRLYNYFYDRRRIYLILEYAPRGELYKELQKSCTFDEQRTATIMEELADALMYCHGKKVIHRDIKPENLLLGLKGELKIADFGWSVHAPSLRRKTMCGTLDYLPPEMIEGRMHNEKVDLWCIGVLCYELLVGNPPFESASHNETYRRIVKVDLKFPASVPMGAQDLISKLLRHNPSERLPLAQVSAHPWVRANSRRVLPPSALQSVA
Sequence of Macrophage colony-stimulating factor 1 receptor (P07333 whole entry): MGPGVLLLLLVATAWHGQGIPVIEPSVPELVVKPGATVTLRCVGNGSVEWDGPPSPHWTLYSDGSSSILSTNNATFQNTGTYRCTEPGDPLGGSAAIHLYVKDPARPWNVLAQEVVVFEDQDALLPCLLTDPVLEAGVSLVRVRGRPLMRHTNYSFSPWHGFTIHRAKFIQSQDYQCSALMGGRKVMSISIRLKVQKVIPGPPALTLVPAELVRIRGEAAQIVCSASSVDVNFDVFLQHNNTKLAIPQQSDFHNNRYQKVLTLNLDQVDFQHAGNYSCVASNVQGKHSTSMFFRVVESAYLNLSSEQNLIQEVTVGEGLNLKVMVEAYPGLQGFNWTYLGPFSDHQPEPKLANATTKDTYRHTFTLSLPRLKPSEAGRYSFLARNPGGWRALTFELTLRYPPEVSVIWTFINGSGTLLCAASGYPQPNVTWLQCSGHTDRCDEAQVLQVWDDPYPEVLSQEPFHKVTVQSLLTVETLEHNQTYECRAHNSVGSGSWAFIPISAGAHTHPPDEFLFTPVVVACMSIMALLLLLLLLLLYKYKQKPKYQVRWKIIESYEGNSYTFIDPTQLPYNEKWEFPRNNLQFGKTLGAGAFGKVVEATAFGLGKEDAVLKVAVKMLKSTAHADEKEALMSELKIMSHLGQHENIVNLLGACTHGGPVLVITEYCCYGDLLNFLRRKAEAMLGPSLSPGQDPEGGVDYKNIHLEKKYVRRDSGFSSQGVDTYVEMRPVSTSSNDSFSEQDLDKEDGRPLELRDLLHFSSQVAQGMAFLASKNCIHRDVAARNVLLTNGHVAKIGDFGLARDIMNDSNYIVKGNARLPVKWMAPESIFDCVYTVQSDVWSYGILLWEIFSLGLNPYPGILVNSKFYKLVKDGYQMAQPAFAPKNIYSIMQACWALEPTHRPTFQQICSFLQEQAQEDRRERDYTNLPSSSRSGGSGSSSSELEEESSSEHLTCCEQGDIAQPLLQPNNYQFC
Sequence of Epidermal growth factor receptor (P00533 whole entry): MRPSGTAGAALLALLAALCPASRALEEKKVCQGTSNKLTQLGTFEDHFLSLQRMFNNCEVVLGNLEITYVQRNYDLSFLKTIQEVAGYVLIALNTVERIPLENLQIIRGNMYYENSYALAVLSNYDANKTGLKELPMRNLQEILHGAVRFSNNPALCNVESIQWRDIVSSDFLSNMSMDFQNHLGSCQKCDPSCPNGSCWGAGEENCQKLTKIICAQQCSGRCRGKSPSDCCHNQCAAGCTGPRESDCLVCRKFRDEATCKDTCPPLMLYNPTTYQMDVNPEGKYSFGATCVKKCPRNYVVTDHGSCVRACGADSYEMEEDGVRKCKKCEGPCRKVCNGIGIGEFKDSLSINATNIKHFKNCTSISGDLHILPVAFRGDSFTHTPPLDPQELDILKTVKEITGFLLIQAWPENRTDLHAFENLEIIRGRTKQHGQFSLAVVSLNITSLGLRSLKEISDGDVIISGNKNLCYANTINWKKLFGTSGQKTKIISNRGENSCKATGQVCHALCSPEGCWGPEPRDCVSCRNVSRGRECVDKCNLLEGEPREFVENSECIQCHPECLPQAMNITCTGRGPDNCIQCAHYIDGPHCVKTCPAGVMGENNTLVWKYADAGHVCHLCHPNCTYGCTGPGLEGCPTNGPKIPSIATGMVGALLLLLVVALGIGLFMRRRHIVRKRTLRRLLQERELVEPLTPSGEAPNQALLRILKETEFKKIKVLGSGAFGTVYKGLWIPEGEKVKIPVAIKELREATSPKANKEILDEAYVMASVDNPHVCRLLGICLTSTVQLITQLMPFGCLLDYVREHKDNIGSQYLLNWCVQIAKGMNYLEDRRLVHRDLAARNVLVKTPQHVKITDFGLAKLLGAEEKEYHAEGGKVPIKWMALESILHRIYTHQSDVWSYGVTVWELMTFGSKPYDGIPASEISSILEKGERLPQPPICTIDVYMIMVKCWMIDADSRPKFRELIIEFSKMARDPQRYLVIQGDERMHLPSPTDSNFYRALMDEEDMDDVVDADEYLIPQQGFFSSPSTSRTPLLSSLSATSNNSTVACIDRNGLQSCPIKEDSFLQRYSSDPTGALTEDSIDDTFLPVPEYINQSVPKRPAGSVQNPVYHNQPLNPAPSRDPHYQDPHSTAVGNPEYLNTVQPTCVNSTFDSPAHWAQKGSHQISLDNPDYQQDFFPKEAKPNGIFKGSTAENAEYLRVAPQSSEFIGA
Sequence of Serine/threonine-protein kinase Nek2 (P51955 whole entry): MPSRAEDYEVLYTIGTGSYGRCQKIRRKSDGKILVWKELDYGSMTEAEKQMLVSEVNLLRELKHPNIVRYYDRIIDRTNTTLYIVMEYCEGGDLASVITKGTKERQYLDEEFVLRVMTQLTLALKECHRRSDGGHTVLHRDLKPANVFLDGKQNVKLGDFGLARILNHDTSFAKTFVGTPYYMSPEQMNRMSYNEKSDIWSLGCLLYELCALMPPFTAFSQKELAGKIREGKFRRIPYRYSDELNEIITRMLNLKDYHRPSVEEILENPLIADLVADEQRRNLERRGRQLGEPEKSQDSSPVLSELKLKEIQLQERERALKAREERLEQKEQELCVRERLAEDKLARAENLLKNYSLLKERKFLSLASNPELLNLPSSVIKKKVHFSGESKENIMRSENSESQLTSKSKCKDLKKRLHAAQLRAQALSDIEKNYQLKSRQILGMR
Sequence of Aurora kinase A (O14965 whole entry): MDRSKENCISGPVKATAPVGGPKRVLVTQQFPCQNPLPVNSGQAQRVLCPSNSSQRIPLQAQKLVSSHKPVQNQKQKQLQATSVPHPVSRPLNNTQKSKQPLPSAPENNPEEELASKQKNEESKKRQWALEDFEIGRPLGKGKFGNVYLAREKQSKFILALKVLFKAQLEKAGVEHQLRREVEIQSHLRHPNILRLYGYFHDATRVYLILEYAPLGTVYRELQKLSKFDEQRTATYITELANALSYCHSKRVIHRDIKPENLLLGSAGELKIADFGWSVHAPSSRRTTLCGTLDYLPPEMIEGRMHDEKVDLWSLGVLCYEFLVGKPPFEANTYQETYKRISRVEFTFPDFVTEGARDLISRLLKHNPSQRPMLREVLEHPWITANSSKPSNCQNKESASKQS

Turning to `COc1cc(-c2cc3ncnc(Nc4ccc(CC(=O)Nc5ccc(F)c(Cl)c5)cc4)c3s2)cc(OC)c1OC`, the IC50 in data set [1] is over 200 µM.
For the compound `Cn1cc(-c2cc3ncnc(Nc4ccc(CC(=O)Nc5cc(C(C)(C)C)nn5C)cc4)c3s2)cn1`, the IC50 in data set [2] was 176 µM; against Aurora kinase B, 1.99 µM; in data set [4], over 200 µM; in data set [5], 41.5 µM; in data set [6], 13.6 µM; at Aurora kinase A it was 0.893 µM. Also, the Papp at 2 h, 10 µM in data set [3] was 50.5 ×10⁻⁶ cm/s.
As to `C#Cc1cccc(NC(=O)Cc2ccc(Nc3ncnc4ccsc34)cc2)c1`, the results for the IC50 (in [1]; in the data set with KM12) were 22.6 µM and 38.8 µM, respectively.
As for `CC(C)(C)c1cc(NC(=O)Cc2ccc(-c3ncnc4ccsc34)cc2)no1`, the IC50 in the data set on KM12 was 86.5 µM. In data set [7], the inhibition is 18%.
The matching figures for `O=C(Cc1ccc(-c2ncnc3ccsc23)cc1)N[C@@H]1CCCC[C@H]1O`: over 200 µM and 18%.
The matching figures for `Cn1nc(C(C)(C)C)cc1NC(=O)Cc1ccc(-c2ncnc3ccsc23)cc1`: 25.2 µM and 31.4%.
Turning to `O=C(Cc1ccc(Nc2ncnc3ccsc23)cc1)N[C@@H]1CCCC[C@@H]1O`, the IC50 in [1] is 41.2 µM; in the data set on KM12, over 200 µM.
